Tests used:
Test in all cases: relative viability (nuclei count vs DMSO), 5 days (fraction); higher = more cells survive
Carboplatin + Dasatinib = compound: C1CC(C1)(C(=O)O)C(=O)O.[NH2-].[NH2-].[Pt+2] [Carboplatin] + Cc1nc(Nc2ncc(C(=O)Nc3c(C)cccc3Cl)s2)cc(N2CCN(CCO)CC2)n1 [Dasatinib] (partner 0.075 µM)
How it was run: (§1)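 Five library-drug doses in √10 steps were combined with a fixed anchor-drug dose, or a single drug was given alone, by pin tool to lung cancer cell lines in 1536-well plates the day after seeding. Nuclei were stained and counted after 5 days. Relative viability is the nuclei count in treated wells over that in vehicle wells, taken as the median of duplicate plates.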

GSK126 + Palbociclib = compound: CC[C@H](C)N1C=C(C2=C(C=C(C=C21)C3=CN=C(C=C3)N4CCNCC4)C(=O)NCC5=C(C=C(NC5=O)C)C)C [GSK126] + CC(=O)c1c(C)c2cnc(Nc3ccc(N4CCNCC4)cn3)nc2n(C2CCCC2)c1=O [Palbociclib] (partner 0.5 µM)
How it was run: as §1

GSK126 + Pemetrexed = compound: CC[C@H](C)N1C=C(C2=C(C=C(C=C21)C3=CN=C(C=C3)N4CCNCC4)C(=O)NCC5=C(C=C(NC5=O)C)C)C [GSK126] + Nc1nc2[nH]cc(CCc3ccc(C(=O)N[C@@H](CCC(=O)O)C(=O)O)cc3)c2c(=O)[nH]1 [Pemetrexed] (partner 0.2 µM)
How it was run: as §1

GSK126 + Navitoclax = compound: CC[C@H](C)N1C=C(C2=C(C=C(C=C21)C3=CN=C(C=C3)N4CCNCC4)C(=O)NCC5=C(C=C(NC5=O)C)C)C [GSK126] + CC1(C)CCC(c2ccc(Cl)cc2)=C(CN2CCN(c3ccc(C(=O)NS(=O)(=O)c4ccc(N[C@H](CCN5CCOCC5)CSc5ccccc5)c(S(=O)(=O)C(F)(F)F)c4)cc3)CC2)C1 [Navitoclax] (partner 0.5 µM)
How it was run: as §1

Row | Cell Line | relative viability (Carboplatin + Dasatinib; first compound 0.08 µM) | relative viability (Carboplatin + Dasatinib; first compound 0.253 µM) | relative viability (Carboplatin + Dasatinib; first compound 0.8 µM) | relative viability (Carboplatin + Dasatinib; first compound 2.53 µM) | relative viability (Carboplatin + Dasatinib; first compound 8 µM) | relative viability (GSK126 + Palbociclib; first compound 0.08 µM) | relative viability (GSK126 + Palbociclib; first compound 0.253 µM) | relative viability (GSK126 + Palbociclib; first compound 0.8 µM) | relative viability (GSK126 + Palbociclib; first compound 2.53 µM) | relative viability (GSK126 + Palbociclib; first compound 8 µM) | relative viability (GSK126 + Pemetrexed; first compound 0.08 µM) | relative viability (GSK126 + Pemetrexed; first compound 0.253 µM) | relative viability (GSK126 + Pemetrexed; first compound 0.8 µM) | relative viability (GSK126 + Pemetrexed; first compound 2.53 µM) | relative viability (GSK126 + Pemetrexed; first compound 8 µM) | relative viability (GSK126 + Navitoclax; first compound 0.08 µM) | relative viability (GSK126 + Navitoclax; first compound 0.253 µM) | relative viability (GSK126 + Navitoclax; first compound 0.8 µM) | relative viability (GSK126 + Navitoclax; first compound 2.53 µM) | relative viability (GSK126 + Navitoclax; first compound 8 µM)
1 | NCI-H358 | 0.162 | 0.171 | 0.163 | 0.178 | 0.18 | 0.13 | 0.131 | 0.12 | 0.146 | 0.136 | 0.184 | 0.182 | 0.174 | 0.166 | 0.197 |  |  |  |  | 
2 | NCI-H522 | 0.751 | 0.88 | 0.859 | 0.911 | 0.886 | 1.09 | 0.772 | 0.991 | 1.06 | 1.07 | 1.02 | 0.772 | 0.95 | 0.865 | 1.06 |  |  |  |  | 
3 | NCI-H596 | 0.725 | 0.72 | 0.697 | 0.525 | 0.539 |  |  |  |  |  | 0.496 | 0.464 | 0.441 | 0.45 | 0.472 | 0.92 | 0.85 | 0.988 | 1.1 | 0.961
4 | NCI-H650 | 0.472 | 0.47 | 0.399 | 0.423 | 0.371 | 0.349 | 0.315 | 0.331 | 0.322 | 0.352 | 1.09 | 0.825 | 0.935 | 0.903 | 1.24 |  |  |  |  | 
5 | NCI-H661 | 1.06 | 0.923 | 0.844 | 0.82 | 0.746 | 0.43 | 0.419 | 0.414 | 0.43 | 0.431 | 0.982 | 0.897 | 0.991 | 0.914 | 0.967 |  |  |  |  | 
6 | NCI-H727 | 0.472 | 0.356 | 0.374 | 0.364 | 0.376 | 0.681 | 0.641 | 0.67 | 0.75 | 0.659 |  |  |  |  |  | 0.444 | 0.354 | 0.51 | 0.408 | 0.361
7 | NCI-H1299 |  |  |  |  |  |  |  |  |  |  |  |  |  |  |  | 1.05 | 1.07 | 1.01 | 1.03 | 1.02
8 | NCI-H1563 | 0.496 | 0.464 | 0.439 | 0.399 | 0.445 |  |  |  |  |  | 0.848 | 0.808 | 0.772 | 0.579 | 0.754 |  |  |  |  | 
9 | NCI-H1623 | 0.583 | 0.553 | 0.57 | 0.506 | 0.469 |  |  |  |  |  |  |  |  |  |  |  |  |  |  | 
10 | NCI-H1648 |  |  |  |  |  | 0.291 | 0.357 | 0.275 | 0.288 | 0.293 | 0.693 | 0.766 | 0.884 | 0.945 | 0.76 |  |  |  |  | 
11 | NCI-H1703 |  |  |  |  |  |  |  |  |  |  |  |  |  |  |  | 1.49 | 0.942 | 1.02 | 0.898 | 0.748
12 | NCI-H2342 | 0.328 | 0.344 | 0.311 | 0.28 | 0.294 | 0.566 | 0.575 | 0.508 | 0.572 | 0.522 | 0.851 | 0.762 | 0.744 | 0.879 | 0.881 |  |  |  |  | 
13 | SW 900 | 0.837 | 0.616 | 0.442 | 0.409 | 0.467 | 0.659 | 0.514 | 0.518 | 0.61 | 0.585 | 0.498 | 0.45 | 0.463 | 0.46 | 0.493 |  |  |  |  | 

Source: the supplement of paper PMC10307832
